Experimental data from patent US8957001B2, “Particles comprising a biopolymer which is degradable under the effect of an electromagnetic wave as emitted by a solar radiation” (BASF Beauty Care Solutions France SAS, priority 2002, dated 2015).

Assay: Progressive release of an encapsulated active from liposomes under UV irradiation
Type: physicochemical
Text: All is done in a manner identical to what is presented in Example 15, but RNA of marine origin, which is commercially available, is used in amounts which are identical to those used in Example 15. All is done in a manner identical to what is presented in Example 15, but DNA of plant origin or RNA of plant origin, which are commercially available (Inocosm), are used in amounts which are identical to those used in Example 15. All is done in a manner identical to what is presented in Example 15, but oligonucleosides or oligonucleotides, which are prepared by chemical synthesis and which are available from companies which manufacture these nucleosides or these nucleotides to order, are used for preparing these particles, in proportions which are identical to those used in Example 15.

Row | Molecule | release under UV irradiation (encapsulated in plant DNA or plant RNA liposomes (Example 17), after 3 hours of irradiation) | release under UV irradiation (encapsulated in plant DNA or plant RNA liposomes (Example 17), after 6 hours of irradiation) | release under UV irradiation (encapsulated in marine RNA liposomes (Example 16), after 3 hours of irradiation) | release under UV irradiation (encapsulated in marine RNA liposomes (Example 16), after 6 hours of irradiation)
1 | CCCCC(CC)COC(=O)C=Cc1ccc(OC)cc1 (stereo not shown) [Parsol MCX] | 60% | 96% |  | 
2 | tocopherol |  |  | 40% | 80%
